Among the data in ChEMBL document CHEMBL4396865, “Current advances of triazole alcohols derived from fluconazole: Design, in vitro and in silico studies” (2019) are MIC80, Ratio and MIC values, retold here.

Type in all cases: functional
For test [1], the system named is Candida albicans. Kind of test: Antifungal activity against Candida albicans. Conditions: Candida albicans.
In test [2] the test system is Candida parapsilosis. Kind of test: Antifungal activity against Candida parapsilosis. To be noted: Lodderomyces parapsilosis.
The test system of test [3] is Candida tropicalis. Put plainly: Antifungal activity against Candida tropicalis. Conditions: Candida tropicalis.
Test [4] deals with Kluyveromyces marxianus. Kind of test: Antifungal activity against Candida kefyr. Conditions: Kluyveromyces marxianus.
The test system of test [5] is Cryptococcus neoformans. Put plainly: Antifungal activity against Cryptococcus neoformans. Conditions: Cryptococcus neoformans.
The subject of test [6] is Trichophyton rubrum. Kind of test: Antifungal activity against Trichophyton rubrum. To be noted: Trichophyton rubrum.
Test [7] deals with Aspergillus fumigatus. Put plainly: Antifungal activity against Aspergillus fumigatus. Conditions: Aspergillus fumigatus.
The subject of test [8] is Candida albicans. Put plainly: Antifungal activity against Candida albicans ATCC 76615 after 24 hrs by microbroth dilution method. To be noted: ATCC 76615, 24 h. For orientation: In broth dilution the organism is exposed to a series of concentrations in liquid medium.
The subject of test [9] is Candida albicans. Kind of test: Potency index, ratio of fluconazole MIC to test compound MIC for Candida albicans.
Test [10] relates to Candida albicans. Put plainly: Antifungal activity against fluconalzole-susceptible Candida albicans after 24 hrs.
For test [11], the system named is Candida parapsilosis. Kind of test: Antifungal activity against fluconalzole-susceptible Candida parapsilosis after 24 hrs. To be noted: Lodderomyces parapsilosis.
Test [12] relates to Candida albicans. Kind of test: Antifungal activity against Candida albicans CA98001.
For test [13], the system named is Candida albicans. Put plainly: Antifungal activity against Candida albicans DSY735.
The subject of test [14] is Candida albicans. Kind of test: Antifungal activity against Candida albicans CAAL-74.
For test [15], the system named is Pichia kudriavzevii. Kind of test: Antifungal activity against Candida krusei CK506.
The test system of test [16] is Pichia kudriavzevii. Put plainly: Antifungal activity against Candida krusei CK8.
The test system of test [17] is Nakaseomyces glabratus. Put plainly: Antifungal activity against Candida glabrata CG468.
The subject of test [18] is Candida parapsilosis. Put plainly: Antifungal activity against Candida parapsilosis CAPA1.
In test [19] the test system is Candida parapsilosis. Put plainly: Antifungal activity against Candida parapsilosis CAPA2.
For test [20], the system named is Aspergillus fumigatus. Kind of test: Antifungal activity against Aspergillus fumigatus AF98003.
The mark [21] stands for this setting: Candida albicans, CA98001, read-out: MIC.
[22] abbreviates: Candida albicans, DSY735, read-out: MIC.
The mark [23] stands for this setting: Candida albicans, CAAL-74, read-out: MIC.
Setting [24] is: Pichia kudriavzevii, CK506, read-out: MIC.
Setting [25] is: Pichia kudriavzevii, CK8, read-out: MIC.
Where [26] appears, read: Nakaseomyces glabratus, CG468, read-out: MIC.
[27] abbreviates: Lodderomyces parapsilosis, CAPA1, read-out: MIC.
Where [28] appears, read: Lodderomyces parapsilosis, CAPA2, read-out: MIC.

In brackets after ≈: the same amount, converted by molar mass.

The MIC80 is an inhibitory concentration at the 80% level, which refers to growth in some studies and to a panel of isolates in others. Read a high MIC80 as weaker potency. `OC(CN1CCC(OCc2ccc(F)cc2)CC1)(Cn1cncn1)c1ccc(F)cc1F` (centres undefined): the MIC80 is 0.01 µM (≈ 0.00446 µg/mL) in test [1]; 0.01 to 2.33 µM (≈ 0.00446 to 1.04 µg/mL) in test [2]; 0.01 to 2.33 µM (≈ 0.00446 to 1.04 µg/mL) in [3]; 0.01 to 2.33 µM (≈ 0.00446 to 1.04 µg/mL) in test [4]; 0.01 to 2.33 µM (≈ 0.00446 to 1.04 µg/mL) in test [5]; 0.03 to 0.15 µM (≈ 0.0134 to 0.067 µg/mL) in [6]. For the same compound, the MIC80 in test [7] was 0.55 to 2.33 µM (≈ 0.246 to 1.04 µg/mL); in test [8], 0.01 to 2.33 µM (≈ 0.00446 to 1.04 µg/mL). Moreover, the Ratio in test [9] is recorded as 82.

By MIC is commonly meant the smallest concentration in the dilution series that meets the test's criterion for growth inhibition. On to `OC(Cn1cncn1)(Cn1cnc(SCc2ccccc2)n1)c1ccc(F)cc1F` (centres undefined), for which the MIC in [10] and in test [11] was 0.063 to 1 µg/mL (≈ 0.147 to 2.33 µM) each time.

Consider `OC(CN1CCC(OCc2cccc(Br)c2)CC1)(Cn1cncn1)c1ccc(F)cc1F` (centres undefined), for which the MIC80 in test [1], in test [2], in [3], in test [4], in test [5] and in test [6] was 0.01 to 0.56 µM (≈ 0.00507 to 0.284 µg/mL) each time. Besides, the MIC80 in test [7] and in test [8] was 0.01 to 0.56 µM (≈ 0.00507 to 0.284 µg/mL) each time. Further, the Ratio in test [9] is reported as 82.

On to `CC(C)CNS(=O)(=O)c1ccc(CN(C)CC(O)(Cn2cncn2)c2ccc(F)cc2F)cc1` (centres undefined), for which the MIC in [12] (setting [21]), in test [13] (setting [22]), in test [14] (setting [23]), in test [15] (setting [24]), in test [16] (setting [25]) and in test [17] (setting [26]) was 0.001 to 0.069 µg/mL (≈ 0.00203 to 0.14 µM) in each case. Also, the MIC in [18] (setting [27]) was in the range of 0.001 to 0.069 µg/mL (≈ 0.00203 to 0.14 µM); in [19] (setting [28]), 0.001 to 0.069 µg/mL (≈ 0.00203 to 0.14 µM); in test [20] it was 0.767 to 3.57 µg/mL (≈ 1.55 to 7.23 µM).

For the compound `CN(Cc1ccc(-c2ccc(C#N)cc2)cc1)CC(O)(Cn1cncn1)c1ccc(F)cc1F` (centres undefined), the MIC in [12], in test [13], in test [14], in test [15], in test [16] and in test [17] was 0.001 to 1.32 µg/mL throughout. Also, the MIC is 0.001 to 1.32 µg/mL in test [18], 0.001 to 1.32 µg/mL in test [19] and 2.76 µg/mL (≈ 6.01 µM) in test [20].

For `CCCc1ccc(NS(=O)(=O)c2ccc(CN(C)CC(O)(Cn3cncn3)c3ccc(F)cc3F)cc2)cc1` (centres undefined), the MIC in [12] (setting [21]), in test [13] (setting [22]), in test [14] (setting [23]), in [15] (setting [24]), in [16] (setting [25]) and in [17] (setting [26]) was 0.001 to 0.069 µg/mL (≈ 0.0018 to 0.124 µM) in each case. For the same compound, the MIC in test [18] (setting [27]) lay in the range of 0.001 to 0.069 µg/mL (≈ 0.0018 to 0.124 µM); in test [19] (setting [28]), 0.001 to 0.069 µg/mL (≈ 0.0018 to 0.124 µM); in test [20], 0.767 to 3.57 µg/mL (≈ 1.38 to 6.42 µM).

With `CN(Cc1ccc(S(=O)(=O)Nc2ccc([N+](=O)[O-])cc2)cc1)CC(O)(Cn1cncn1)c1ccc(F)cc1F` (centres undefined), the MIC in test [12] (setting [21]), in [13] (setting [22]), in [14] (setting [23]), in test [15] (setting [24]), in test [16] (setting [25]) and in test [17] (setting [26]) was 0.001 to 0.069 µg/mL (≈ 0.00179 to 0.124 µM) in each case. Also, the values for the MIC in test [18] (setting [27]), in test [19] (setting [28]) and in test [20] were 0.001 to 0.069 µg/mL (≈ 0.00179 to 0.124 µM), 0.001 to 0.069 µg/mL (≈ 0.00179 to 0.124 µM) and 0.767 to 3.57 µg/mL (≈ 1.37 to 6.39 µM), respectively.

Consider `OC(Cn1cncn1)(Cn1cnc(SCc2ccc(F)cc2)n1)c1ccc(F)cc1F` (centres undefined), for which the MIC in test [10] and in [11] was 0.063 to 1 µg/mL (≈ 0.141 to 2.24 µM) in each case.

On to `OC(Cn1cncn1)(Cn1cnc(SCc2ccc(Cl)cc2Cl)n1)c1ccc(F)cc1F` (centres undefined), for which the MIC in test [10] and in [11] was 0.063 to 1 µg/mL (≈ 0.127 to 2.01 µM) each time.

As to `OC(CN1CCC(OCc2ccc(Cl)c(Cl)c2)CC1)(Cn1cncn1)c1ccc(F)cc1F` (centres undefined), the MIC80 in test [1] was 0.01 µM (≈ 0.00497 µg/mL); in [2], 0.01 to 2.33 µM (≈ 0.00497 to 1.16 µg/mL); in [3], 0.01 to 2.33 µM (≈ 0.00497 to 1.16 µg/mL); in test [4] it was 0.01 to 2.33 µM (≈ 0.00497 to 1.16 µg/mL); in test [5], 0.01 to 2.33 µM (≈ 0.00497 to 1.16 µg/mL); in [6] it was 0.03 to 0.15 µM (≈ 0.0149 to 0.0746 µg/mL). Further, the MIC80 is 0.55 to 2.33 µM (≈ 0.274 to 1.16 µg/mL) in [7] and 0.01 to 2.33 µM (≈ 0.00497 to 1.16 µg/mL) in test [8]. In addition, in test [9], the Ratio turned out to be 82.

On to `O=[N+]([O-])c1ccc(CSc2ncn(CC(O)(Cn3cncn3)c3ccc(F)cc3F)n2)cc1` (centres undefined), for which the MIC in [10] and in [11] was 0.063 to 1 µg/mL (≈ 0.133 to 2.11 µM) throughout.

Turning to `CN(Cc1ccc(S(N)(=O)=O)cc1)CC(O)(Cn1cncn1)c1ccc(F)cc1F` (centres undefined), the MIC in test [12] (setting [21]), in [13] (setting [22]), in test [14] (setting [23]), in test [15] (setting [24]), in [16] (setting [25]) and in test [17] (setting [26]) was 0.001 to 0.069 µg/mL (≈ 0.00229 to 0.158 µM) each time. The MIC in [18] (setting [27]) was 0.001 to 0.069 µg/mL (≈ 0.00229 to 0.158 µM); in [19] (setting [28]) it was 0.001 to 0.069 µg/mL (≈ 0.00229 to 0.158 µM); in test [20] it was 0.767 to 3.57 µg/mL (≈ 1.75 to 8.16 µM).

In the case of `OC(Cn1cncn1)(Cn1cnc(SCc2cccc(F)c2)n1)c1ccc(F)cc1F` (centres undefined), the minimum inhibitory concentration (MIC) in [10] and in test [11] was 0.063 to 1 µg/mL (≈ 0.141 to 2.24 µM) throughout.

As for `OC(Cn1cncn1)(Cn1cnc(SCc2ccc(Cl)cc2)n1)c1ccc(F)cc1F` (centres undefined), the MIC in [10] and in test [11] was 0.063 to 1 µg/mL (≈ 0.136 to 2.16 µM) each time.
